Data published in ChEMBL document CHEMBL1201862, “PubChem BioAssay data set” (2004).
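Dose response: 5 concentrations. Exposure: 48 h. Format: 96-well plates. Endpoint: linear interpolation; highest concentration if not reached. Abbreviation: GI50, concentration required for 50% inhibition of growth.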 Calls of active or inactive are those of the source. Rule as the data show it: active = GI50 up to about 1.1 µM and inactive = higher.

Experiments:
Assay in all cases: NCI-60 cell line screen, 48 h
[1] = system: ACHN
[2] = system: CCRF-CEM
[3] = system: HOP-62
[4] = system: Hs-578T
[5] = system: M14
[6] = system: MDA-N
[7] = system: OVCAR-3
[8] = system: OVCAR-4
[9] = system: OVCAR-8
[10] = system: PC-3
[11] = system: SK-MEL-5
[12] = system: SK-OV-3
[13] = system: SN12C
[14] = system: SW-620
[15] = system: TK-10
[16] = system: UACC-257
[17] = system: UACC-62
[18] = system: UO-31
[19] = system: SR

Row | Structure (SMILES) | GI50 [1] | GI50 [2] | GI50 [3] | GI50 [4] | GI50 [5] | GI50 [6] | GI50 [7] | GI50 [8] | GI50 [9] | GI50 [10] | GI50 [11] | GI50 [12] | GI50 [13] | GI50 [14] | GI50 [15] | GI50 [16] | GI50 [17] | GI50 [18] | GI50 [19]
1 | CCOC(=O)c1cc2c([N+](=O)[O-])c(NC(C)=O)ccc2s1 | 41.7 µM (inactive) | 53 µM (inactive) | 90.2 µM (inactive) | 37.8 µM (inactive) | > 100 µM (inactive) | 81.8 µM (inactive) | 38.4 µM (inactive) | 68.4 µM (inactive) | > 100 µM (inactive) | 33.5 µM (inactive) | 39.4 µM (inactive) | > 100 µM (inactive) | 92 µM (inactive) | > 100 µM (inactive) | > 100 µM (inactive) | > 100 µM (inactive) | 66.7 µM (inactive) | 47.3 µM (inactive) | –
2 | C=CC1(O)CCCC=C1COCc1ccccc1 (stereo not given) | 56 µM (inactive) | 43.6 µM (inactive) | > 100 µM (inactive) | > 100 µM (inactive) | > 100 µM (inactive) | 73.8 µM (inactive) | – | 38.4 µM (inactive) | 53 µM (inactive) | 67.8 µM (inactive) | 52.6 µM (inactive) | > 100 µM (inactive) | 70 µM (inactive) | – | > 100 µM (inactive) | > 100 µM (inactive) | > 100 µM (inactive) | 45.1 µM (inactive) | 24.8 µM (inactive)
3 | Brc1ccc2c3c1[C@H]1O[C@H]1c1cccc(c1-3)[C@@H]1O[C@H]21 | 15.3 µM (inactive) | – | 14.8 µM (inactive) | 23.1 µM (inactive) | 17.2 µM (inactive) | 16.9 µM (inactive) | – | 15.1 µM (inactive) | 15.6 µM (inactive) | 16.8 µM (inactive) | 15 µM (inactive) | 19.1 µM (inactive) | 17.6 µM (inactive) | – | 17.7 µM (inactive) | 14.8 µM (inactive) | 16.8 µM (inactive) | 17.3 µM (inactive) | 20.2 µM (inactive)
4 | Cn1c(=O)c2nc(CCNC(=O)c3ccccc3)[nH]c2n(C)c1=O | > 100 µM (inactive) | > 100 µM (inactive) | > 100 µM (inactive) | > 100 µM (inactive) | > 100 µM (inactive) | > 100 µM (inactive) | > 100 µM (inactive) | > 100 µM (inactive) | > 100 µM (inactive) | > 100 µM (inactive) | > 100 µM (inactive) | – | > 100 µM (inactive) | > 100 µM (inactive) | > 100 µM (inactive) | > 100 µM (inactive) | > 100 µM (inactive) | > 100 µM (inactive) | > 100 µM (inactive)
5 | CC(C)(CO)CNc1nc(N)nc(Cl)c1/C=N/O | 28.6 µM (inactive) | 23 µM (inactive) | 30.9 µM (inactive) | 27 µM (inactive) | – | 41.2 µM (inactive) | 23 µM (inactive) | 34 µM (inactive) | 31.6 µM (inactive) | 49.5 µM (inactive) | 5.78 µM (inactive) | – | 72.4 µM (inactive) | 82.6 µM (inactive) | 35 µM (inactive) | 36.1 µM (inactive) | 31.8 µM (inactive) | 17.3 µM (inactive) | 24.1 µM (inactive)
6 | NC(=O)C[S+]([O-])CC(N)C(=O)O (stereo not given) | > 100 µM (inactive) | – | > 100 µM (inactive) | > 100 µM (inactive) | > 100 µM (inactive) | > 100 µM (inactive) | > 100 µM (inactive) | > 100 µM (inactive) | > 100 µM (inactive) | > 100 µM (inactive) | > 100 µM (inactive) | – | > 100 µM (inactive) | > 100 µM (inactive) | > 100 µM (inactive) | > 100 µM (inactive) | > 100 µM (inactive) | > 100 µM (inactive) | > 100 µM (inactive)
7 | c1ccc(C2CC(N3CCOCC3)=Nc3ccccc3N2)cc1 (stereo not given) | > 100 µM (inactive) | > 100 µM (inactive) | > 100 µM (inactive) | > 100 µM (inactive) | > 100 µM (inactive) | > 100 µM (inactive) | > 100 µM (inactive) | > 100 µM (inactive) | > 100 µM (inactive) | > 100 µM (inactive) | > 100 µM (inactive) | > 100 µM (inactive) | > 100 µM (inactive) | > 100 µM (inactive) | > 100 µM (inactive) | > 100 µM (inactive) | > 100 µM (inactive) | > 100 µM (inactive) | –
8 | CC(N)C(C)Cc1ccccc1 (stereo not given) | > 100 µM (inactive) | – | > 100 µM (inactive) | 77.1 µM (inactive) | > 100 µM (inactive) | > 100 µM (inactive) | > 100 µM (inactive) | > 100 µM (inactive) | > 100 µM (inactive) | > 100 µM (inactive) | > 100 µM (inactive) | > 100 µM (inactive) | > 100 µM (inactive) | > 100 µM (inactive) | > 100 µM (inactive) | > 100 µM (inactive) | > 100 µM (inactive) | > 100 µM (inactive) | –
9 | O=C1SC(c2ccc(Cl)cc2)(c2ccc(Cl)cc2)c2ccccc21 | 91 µM (inactive) | 36.2 µM (inactive) | > 100 µM (inactive) | 81.8 µM (inactive) | 87.9 µM (inactive) | 62.4 µM (inactive) | 79.3 µM (inactive) | 33.5 µM (inactive) | > 100 µM (inactive) | 40.4 µM (inactive) | 52.8 µM (inactive) | > 100 µM (inactive) | > 100 µM (inactive) | > 100 µM (inactive) | > 100 µM (inactive) | 34.3 µM (inactive) | 98.4 µM (inactive) | 76.6 µM (inactive) | –
10 | COc1ccc(-c2ncn(C[Si](C)(C)C)c2-c2ccc(OC)cc2)cc1 | 7.55 µM (inactive) | – | 12.6 µM (inactive) | 12.5 µM (inactive) | 3.59 µM (inactive) | 3.1 µM (inactive) | – | 7.82 µM (inactive) | 7.06 µM (inactive) | 4.63 µM (inactive) | 2.54 µM (inactive) | 20 µM (inactive) | 11 µM (inactive) | 3.05 µM (inactive) | 7.24 µM (inactive) | 4.93 µM (inactive) | 3.2 µM (inactive) | 2.28 µM (inactive) | 6.19 µM (inactive)
11 | O=C1NC(=S)NC(=O)C1=C/C=C/c1ccc([N+](=O)[O-])cc1 | 18 µM (inactive) | 2.32 µM (inactive) | 18.7 µM (inactive) | 10.7 µM (inactive) | 15 µM (inactive) | 8.71 µM (inactive) | 14.3 µM (inactive) | 19.8 µM (inactive) | 22.1 µM (inactive) | 16.9 µM (inactive) | 19.3 µM (inactive) | 20.2 µM (inactive) | 15.8 µM (inactive) | 4.9 µM (inactive) | 5.45 µM (inactive) | 12.7 µM (inactive) | 11 µM (inactive) | 18.3 µM (inactive) | –
12 | COc1ccc(/C=C2\CCC(C)/C(=C\c3ccc(OC)c(OC)c3)C2=O)cc1OC (stereo not given) | 4.79 µM (inactive) | 2.11 µM (inactive) | – | 12.6 µM (inactive) | 5.38 µM (inactive) | 5.87 µM (inactive) | 13.6 µM (inactive) | – | 3.76 µM (inactive) | 3.39 µM (inactive) | 3.61 µM (inactive) | 9.2 µM (inactive) | 7.29 µM (inactive) | 6.59 µM (inactive) | 2.61 µM (inactive) | 2.88 µM (inactive) | 6.21 µM (inactive) | 8.45 µM (inactive) | –
13 | Cc1cc(NCc2ccccc2)c2ccccc2[n+]1CCCCCCCCCC[n+]1c(C)cc(NCc2ccccc2)c2ccccc21.[O-][Cl+3]([O-])([O-])[O-].[O-][Cl+3]([O-])([O-])[O-] | 0.565 µM (active) | 0.377 µM (active) | – | 0.65 µM (active) | 1.21 µM (inactive) | 0.374 µM (active) | – | 1.3 µM (inactive) | 0.431 µM (active) | 0.458 µM (active) | 0.171 µM (active) | 0.365 µM (active) | 0.279 µM (active) | 0.752 µM (active) | 1.21 µM (inactive) | 0.274 µM (active) | 0.31 µM (active) | 1.86 µM (inactive) | 0.223 µM (active)
14 | O=C(N/N=C(COc1ccccc1Cl)\N=C\c1ccncc1)c1ccncc1 | > 100 µM (inactive) | > 100 µM (inactive) | > 100 µM (inactive) | > 100 µM (inactive) | > 100 µM (inactive) | > 100 µM (inactive) | > 100 µM (inactive) | > 100 µM (inactive) | > 100 µM (inactive) | > 100 µM (inactive) | – | > 100 µM (inactive) | > 100 µM (inactive) | > 100 µM (inactive) | > 100 µM (inactive) | > 100 µM (inactive) | > 100 µM (inactive) | – | –
15 | CC(=O)OCCOCn1c2c(c(=O)[nH]c1=O)CCC2 | > 100 µM (inactive) | > 100 µM (inactive) | > 100 µM (inactive) | > 100 µM (inactive) | > 100 µM (inactive) | > 100 µM (inactive) | > 100 µM (inactive) | > 100 µM (inactive) | > 100 µM (inactive) | > 100 µM (inactive) | > 100 µM (inactive) | – | > 100 µM (inactive) | > 100 µM (inactive) | > 100 µM (inactive) | > 100 µM (inactive) | – | > 100 µM (inactive) | > 100 µM (inactive)
16 | c1cc(CN2CCNCCNCCNCC2)cc(CN2CCNCCNCCNCC2)c1 | > 100 µM (inactive) | – | > 100 µM (inactive) | > 100 µM (inactive) | > 100 µM (inactive) | > 100 µM (inactive) | > 100 µM (inactive) | > 100 µM (inactive) | > 100 µM (inactive) | > 100 µM (inactive) | > 100 µM (inactive) | > 100 µM (inactive) | > 100 µM (inactive) | > 100 µM (inactive) | > 100 µM (inactive) | > 100 µM (inactive) | > 100 µM (inactive) | > 100 µM (inactive) | > 100 µM (inactive)
